For one data set, the target named is hKv7.2/7.3 (Homo sapiens, UniProt O43525+O43526). The data set is described as follows: Off-target Kv7.2/7.3 activation, fluorescence-based ion flux assay (FDSS). It counts as cell-based. Conditions: up to 30 μM. As for the experimental part: (§1) The activity of selected compound examples at three key ion channel off targets was measured, namely Nav1.1, Kv1.1/1.2 and Kv7.2/7.3.
Effects of selected examples on activation of the voltage gated heteromeric potassium channel Kv7.2/7.3 was tested in a fluorescence-based ion flux assay at concentrations up to 30 μM.

The target in another data set is hNav1.1 (Homo sapiens, UniProt P35498). The data set can be described thus: Off-target Nav1.1 electrophysiology (Qpatch), multiple state readouts. It counts as cell-based. Particulars: resting, use-dependent and inactivated state readouts, up to 30 μM; for EC50: activation; for IC50: inhibition. Here is the method:
as §1
The voltage gated sodium channel, Nav1.1, is known to have state-dependent pharmacology, therefore, compound examples were tested for effects on inhibition or activation at the resting state channel, a use-dependent readout, and an inactivated state readout by electrophysiology, at concentrations up to 30 μM.

A further data set concerns the target hKv1.1/1.2 (Homo sapiens, UniProt P16389+Q09470). The data set can be described thus: Off-target Kv1.1/1.2 inhibition electrophysiology (Qpatch). It counts as cell-based. Particulars: up to 30 μM. Here is the method:
as §1
Effects of selected examples on inhibition of the voltage gated heteromeric potassium channel Kv1.1/1.2 was also tested in a use-dependent manner by electrophysiology at concentrations up to 30 μM.

Data set [1] in a line: In vivo pharmacokinetic time profile in rats (plasma and brain). Conditions: rat; for Cmax / half-life / Kp: male, Sprague Dawley; for Cmax / half-life: plasma; for Cmax: vehicle 10% HP-betaCD; for half-life: read-out: T½ (converted); for Kp: brain, read-out: measured brain/plasma ratio. Here is the method: Male Sprague Dawley rats or male C57 mice from SLAC Laboratory Animal Co. Ltd., Shanghai, China or SIPPR/BK Laboratory Animal Co. Ltd., Shanghai, China were used for pharmacokinetic studies. Animals were group housed during acclimation and individually housed during in-life. The animal room environment was controlled (conditions: temperature 20 to 26° C., relative humidity 30 to 70%, 12 hours artificial light and 12 hours dark) and all animals have access to Certified Rodent Diet (Beijing KEAO XIELI Feed Co., Ltd. Beijing, P.R. China.) ad libitum. Animals were deprived of food overnight prior to dosing and fed approximately 4 hours post-dosing. Water was autoclaved before provided to the animals ad libitum.
For oral dosing, the dose formulation was administered via oral gavage.
Animals were anesthetized via isoflurane. At terminal time point, about 200 μL blood was collected from cardiac puncture or abdominal vein. All blood samples were transferred into microcentrifuge tubes containing 5 μL of K2EDTA (0.5 M) as anti-coagulant and placed on wet ice until processed for plasma by centrifugation (3,000 rpm for 5 minutes at 2 to 8° C.) within half an hour of collection and kept at −70±10° C. until LC/MSMS analysis
After blood collection, brain was harvested and washed twice with cold deionized water, and blotted on filter paper, weighted and frozen until processed. Brain samples were thawed and homogenized with 4-fold of cold water using Covaris (peak power 450.0, Duty Factor 20.0, Cycles/Burst 200). for 3 min, vortex for 10 second every 1 min. Samples were further stored at −79° C. (dilution factor=5) until bioanalysis

[2] abbreviates: resting, read-out: hKv1.1/1.2 (Qpatch) Resting IC50.
[3] abbreviates: use-dependent, read-out: hKv1.1/1.2 (Qpatch) Use-dependent IC50.
Setting [4] is: 3 mg/mg, SC administration, dose 3 (mg/mg [sic]).
The mark [5] stands for this setting: 30 mg/mg, SC administration, dose 30 (mg/mg [sic]).
Setting [6] is: PO administration, dose 3 (mg/mg).
The mark [7] stands for this setting: PO administration, dose 30 (mg/mg).
Where [8] appears, read: SC administration, dose 3 (mg/mg).
Setting [9] is: SC administration, dose 10 (mg/mg).

SMILES strings stand for the structures. Read-outs that look alike come from different tables or passages of the source.

hKv1.1/1.2, sequence (Q09470 whole entry): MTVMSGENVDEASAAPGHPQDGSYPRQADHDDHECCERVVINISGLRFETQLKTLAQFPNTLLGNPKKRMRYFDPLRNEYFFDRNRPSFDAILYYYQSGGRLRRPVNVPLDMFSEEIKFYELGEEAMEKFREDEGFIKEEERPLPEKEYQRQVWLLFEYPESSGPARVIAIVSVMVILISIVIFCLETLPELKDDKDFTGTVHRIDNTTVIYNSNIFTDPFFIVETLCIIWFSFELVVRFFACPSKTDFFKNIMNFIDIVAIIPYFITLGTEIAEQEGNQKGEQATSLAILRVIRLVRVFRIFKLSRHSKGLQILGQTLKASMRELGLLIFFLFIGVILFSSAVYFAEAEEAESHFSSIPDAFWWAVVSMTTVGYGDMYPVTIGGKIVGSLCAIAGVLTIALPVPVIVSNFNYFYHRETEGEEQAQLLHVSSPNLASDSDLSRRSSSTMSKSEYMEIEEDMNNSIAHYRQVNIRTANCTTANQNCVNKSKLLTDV
hKv1.1/1.2, sequence (P16389 whole entry): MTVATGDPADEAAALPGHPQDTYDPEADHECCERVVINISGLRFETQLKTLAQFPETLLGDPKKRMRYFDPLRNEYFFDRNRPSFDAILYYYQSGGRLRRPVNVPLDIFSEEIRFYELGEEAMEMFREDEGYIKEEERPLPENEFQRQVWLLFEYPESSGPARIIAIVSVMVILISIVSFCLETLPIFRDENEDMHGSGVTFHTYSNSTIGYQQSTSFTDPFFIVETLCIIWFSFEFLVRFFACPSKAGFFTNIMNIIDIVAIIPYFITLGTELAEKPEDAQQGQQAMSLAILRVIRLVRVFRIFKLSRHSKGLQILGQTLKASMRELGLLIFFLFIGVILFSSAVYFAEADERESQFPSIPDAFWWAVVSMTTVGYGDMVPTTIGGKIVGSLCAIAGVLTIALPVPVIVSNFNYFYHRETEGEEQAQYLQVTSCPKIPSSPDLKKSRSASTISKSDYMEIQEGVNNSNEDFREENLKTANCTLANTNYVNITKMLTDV

As to `Cc1ccc(S(=O)(=O)n2ccc(C(=O)NCc3ncco3)c2)cc1` [Compound 86, 1-(4-methylbenzene-1-sulfonyl)-N-[(1,3-oxazol-2-yl)methyl]-1H-pyrrole-3-carboxamide], the EC50 at hKv7.2/7.3 and at hNav1.1 was more than 30 µM throughout. The IC50 on hNav1.1 was more than 30 µM; on hKv1.1/1.2 (setting [2]) it was more than 30 µM; at hKv1.1/1.2 (setting [3]), not below 30 µM. For the same compound, the values for the Cmax in data set [1] (setting [4]) and in data set [1] (setting [5]) were 1100 ng/mL and 7620 ng/mL, respectively. In addition, the half-life was 18 min in data set [1] (setting [4]) and 24 min in data set [1] (setting [5]). The Kp in data set [1] (subcutaneous) amounted to 0.25. The “Estimated unbound brain Cmax” value is given as 95 nM in data set [1] (SC, dose 3 (mg/mg [sic]), based on brain/plasma ratio 0.25 and unbound fraction in brain 12%); 663 nM in data set [1] (SC, dose 30 (mg/mg [sic]), based on brain/plasma ratio 0.25 and unbound fraction in brain 12%). Moreover, the “Unbound plasma, Cmax” value in data set [1] (SC, dose 3 (mg/mg [sic]), unbound fraction in plasma 12%) worked out at 380 nM; in data set [1] (SC, dose 30 (mg/mg [sic]), unbound fraction in plasma 12%) it was 2650 nM.

Turning to `Cc1cnc(CNC(=O)c2ccn(S(=O)(=O)c3ccc(F)cc3C)c2)cn1` [Compound 90, 1-(4-fluoro-2-methylbenzene-1-sulfonyl)-N-[(5-methylpyrazin-2-yl)methyl]-1H-pyrrole-3-carboxamide], the EC50 at hKv7.2/7.3 and on hNav1.1 was more than 30 µM in each case. Also, the IC50 against hNav1.1, at hKv1.1/1.2 (setting [2]) and on hKv1.1/1.2 (setting [3]) was more than 30 µM throughout. Moreover, the highest concentration (Cmax) in data set [1] (setting [6]) came to 627 ng/mL; in data set [1] (setting [7]) it was 3940 ng/mL; in data set [1] (setting [8]), 427 ng/mL; in data set [1] (setting [9]), 1370 ng/mL. Besides, the half-life was 120 min in data set [1] (setting [6]), 66 min in data set [1] (setting [7]), 48 min in data set [1] (setting [8]) and 42 min in data set [1] (setting [9]). Also, the Kp in data set [1] turned out to be 0.5. The “Estimated unbound brain Cmax” value in data set [1] (PO, dose 3 (mg/mg), based on brain/plasma ratio 0.5 and unbound fraction in brain 8%) is recorded as 65 nM; in data set [1] (PO, dose 30 (mg/mg), based on brain/plasma ratio 0.5 and unbound fraction in brain 8%), 406 nM; in data set [1] (SC, dose 3 (mg/mg), based on brain/plasma ratio 0.5 and unbound fraction in brain 8%) it was 44 nM; in data set [1] (SC, dose 10 (mg/mg), based on brain/plasma ratio 0.5 and unbound fraction in brain 8%), 142 nM. Further, the “Unbound plasma, Cmax” value stood at 160 nM in data set [1] (PO, dose 3 (mg/mg), unbound fraction in plasma 10%); 1015 nM in data set [1] (PO, dose 30 (mg/mg), unbound fraction in plasma 10%); 110 nM in data set [1] (SC, dose 3 (mg/mg), unbound fraction in plasma 10%); 353 nM in data set [1] (SC, dose 10 (mg/mg), unbound fraction in plasma 10%).

The values above are taken from patent publication US20200131156A1, “ARYLSULFONYLPYROLECARBOXAMIDE DERIVATIVES AS Kv3 POTASSIUM CHANNEL ACTIVATORS” (H. Lundbeck A/S, priority 2018, published 2020).
